Measurements taken from patent publication US20080206149A1, “METHOD, DYE AND MEDICAMENT FOR STAINING THE INTERNAL LIMITING MEMBRANE, EPIRETINAL MEMBRANE, THE VITREOUS AND/OR THE CAPSULE OF AN EYE” (LUDWIG-MAXIMILIANS-UNIVERSITAT MUNCHEN, priority 2005, published 2008).

Columns and labels:
vitreous = experiment: Staining of the vitreous during vitrectomy in humans using BPB (Example 1); format: in vivo; conditions: 0.2%
Description: All patients (n=9) gave their written informed consent before surgery. […] A standard three port pars plana vitrectomy was performed. First, the transparent vitreous was removed as thoroughly as possible using the vitrectomy probe. Then fluid air exchange was performed and a few drops of the dye (BPB, 0.2%) were injected. After one minute, the dye was washed out by irrigation.

[1] = system: vitreous and posterior hyaloid; experiment: Vitrectomy for idiopathic macular hole (Example 3); format: in vivo, humans
Text: This study was approved by the local ethics committee and Institutional Review Board (IRB) and written informed consent was obtained from all patients. Six consecutive patients with idiopathic macular hole, 3 males and 3 females with a mean age of 68 were included. Holes were graded as stage 2 (n=3), stage 3 (n=2) and stage 4 (n=1). The dye was also used in four patients with retinal detachments, 2 females and 2 males with a mean age of 57 years.
Pre- and postoperatively, all patients underwent a complete clinical examination including measurement of best corrected visual acuity (VA), slit lamp examination, tonometry, and funduscopy using a 78 diopter lens (Volk Optical, Mentor, Ohio, USA). In macular hole patients, we additionally performed optical coherence tomography (OCT) (Stratus-OCT, Carl Zeiss Meditec, Jena, Germany), Goldmann perimetry, multifocal electroretinogram (ERG) and fundus photographs. Patients were seen one day before surgery and then in six weeks intervals. Postoperatively, ERG and Goldmann perimetry were performed at the six weeks follow-up visit and were not repeated if unremarkable.
Bromphenol blue powder was dissolved and diluted using BSS plus and sterilized using a 0.22 μm syringe filter. A final dye concentration of 0.2% was then injected into the eye. Vitrectomy first consisted of a core vitrectomy, followed by vitreous removal in the periphery in the area of the sclerotomy sites by indentation of the globe using a squint hook. Then an attempt was made to induce a posterior vitreous detachment by applying suction at the optic nerve head.
The dye was applied as follows: During pars plana vitrectomy for a macular hole a fluid air-exchange was performed prior to dye injection to achieve a maximum dye concentration on the retinal surface. Then, a few drops of the dye were injected over the posterior pole and the globe was gently moved to allow for an adequate dye distribution (FIG. 8A). This was followed by removal of excessive dye by irrigation after one minute. Then epiretinal tissue was removed if present and an attempt to peel the ILM using an end-gripping forceps was made in selected cases. Surgery was completed by fluid-air exchange and intraocular gas tamponade (hexafluoroethane (C2F6)) as previously described (Haritoglou C., Gandorfer A., Gass C. A., et al., “Indocyanine green-assisted peeling of the internal limiting membrane in macular hole surgery affects visual outcome: a clinicopathologic correlation”, Am J. Ophthalmol 2002; 134: 836-41). During surgery for retinal detachment the dye was applied after induction of a PVD and injection of approximately 1.5 ml heavy liquid (PFCL, perfluorocarbon, Fluoron GmbH, Neu-Ulm, Germany) and fluid-air exchange without removing PFCL (FIG. 8B). Using this approach, we obtained not only a higher dye concentration in the anterior segment of the eye as the dye can not be further diluted by PFCL, but we could also prevent an uncontrolled distribution especially in the subretinal space and excessive contact with the lens capsule, which may result in an unwanted staining effect. In addition we obtained a staining of the vitreous in the periphery as intended. C2F6 was used as an intraocular tamponade at the end of surgery. The staining characteristics were then evaluated by the surgeon.

[2] = Light absorbing properties (UV/VIS/NIR spectrometer); format: physicochemical; conditions: measured up to a content of 0.05% dye
Description: Light absorption was measured in 0.05% solutions, with BSS plus as a solvent medium. Light absorption was measured instantly after preparation of a stock solution of the dye using a UV/VIS/NIR Spectrometer (Lambda 900, Perkin Elmer) between 200 and 1000 nm.

lens capsule = experiment: Staining of the lens capsule in enucleated porcine eyes; conditions: injected into air-filled anterior chamber, removed after one minute; clear porcine lens as background
Description: Additionally, the staining characteristics of the lens capsule in enucleated porcine eyes with a postmortem time of nine hours were evaluated. The dyes were injected into the air-filled anterior chamber and removed by irrigation after one minute. Then, the cornea was removed and a capsulorhexis was performed with a bent needle. All procedures were taped on video.

ARPE-19 cells = experiment: MTT assay, ARPE-19 cells; conditions: 0.2% and 0.02% dye, 10 minutes exposure, compared to BSS plus control
Description: ARPE-19 cells, a human retinal pigment epithelial cell line (42), were purchased from ATCC (Manassas, Va., USA) and grown in a 1:1 mixture of Dulbecco's modified Eagles medium and Ham's F12 medium (DMEM/Ham's F12, Biochrom), supplemented with 10% FCS (Biochrom).
For exposure of dyes RPE and ARPE-19 cells were kept for 24 hours under serum free conditions. After washing cells three times with PBS, cells were incubated for 10 minutes with 300 μl of BSS plus containing 0.2% or 0.02% of dye, respectively. […] The dye was then removed by carefully rinsing cells with BSS plus three times. After 24 hours incubation with serum containing media the cell proliferation assay was performed. RPE cells (p3-6) were seeded in 24-well plates and exposed to two concentrations (0.2 and 0.02%) of dyes. BSS plus alone and H2O2, (200 μL/mL) served as controls.
The tetrazolium dye-reduction assay (MTT; 3-[4,5-dimethylthiazol-2-yl]-2,5-diphenyl tetrazolium bromide;) was used to determine cell survival rate. […] The medium was removed, cells were washed with PBS, and 1000 μL/well MTT solution (1.5 mL MTT stock, 2 mg/mL in PBS, plus 28.5 mL DMEM) was added. RPE cells were incubated at 37° C. for 1 hour. The formazan crystals that formed were dissolved by the addition of dimethyl sulfoxide (DMSO; 1000 μL/well). Absorption was measured by a scanning multiwell spectrophotometer at 550 nm (Molecular Probes, Garching, Germany). […] Experiments were performed in triplicate and repeated three times. RPE and ARPE-19 cells of the same passage incubated with BSS without addition of dyes served as control. Statistical comparison between dye concentrations was performed with SPSS (Mann-Whitney-U-Test).
The MTT test as performed in this study is a well established test for the assessment of cell viability, but relies on calorimetric measurement of a blue (550 nm) formazan reaction product. This color overlaps with the absorption spectra of some of the dyes tested. […] Cell monolayers were treated with dyes as per the experiments described above but absorbance readings were performed without prior application of MTT. […]

## O=S1(=O)OC(c2cc(Br)c(O)c(Br)c2)(c2cc(Br)c(O)c(Br)c2)c2ccccc21 [Bromophenol blue, Bromophenole blue]
vitreous; humans
  complications of complete removal of the vitreous: without complications
vitreous; washed out after one minute, patients with macular pucker or macular hole
  staining of vitreous remnants adherent to the retinal surface: bluish staining
[1]; 0.2%, macular hole surgery
  staining of remnant vitreous in the periphery at the vitreous base: could be seen in all cases
[1]; 0.2%, three cases with complete PVD and no epiretinal membrane
  staining of the retinal surface or the ILM: no staining of the retinal surface or the ILM
[1]; in vivo
  amplitudes in postoperative ERG examinations: no affection of the amplitudes
  loss of VA: No loss of VA
  peripheral visual field defects indicating dye related toxicity: nor did we observe peripheral visual field defects
[1]; macular hole patients with incomplete PVD
  staining of the adherent posterior hyaloid membrane: very useful
[1]; overall patients
  VA postoperatively: 20/40
  VA preoperatively: 20/100
[1]; second operation necessary in one case
  macular hole closure: All macular holes could be closed successfully
[2]
  position of the long wavelength maximum, influence of dye concentration: not influenced by the dye concentration
Lens capsule
  staining of the lens capsule in porcine eyes: stained well
ARPE-19 cells
  cell survival of ARPE-19 cells (MTT): no significant impact on cell survival
